From US7396837B2, “Antitumoral analogs of lamellarins” (Pharma Mar, S.A.U., priority 2002, dated 2008)
Where two headings read alike, the source gives them in different places.

How the values were obtained:
Type in all cases: cell-based
IGROV = assay: SRB colorimetric cell growth inhibition assay, IGROV; conditions: Homo sapiens, IGROV; for GI50: GI=growth inhibition, read-out: GI50 IGROV; for CC50: read-out: LC50 IGROV; for IC (TGI): read-out: TGI IGROV
How it was run: (§1)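 Tested samples remained on human cancer cell cultures throughout the incubation; viable biomass was then stained with SRB and read colorimetrically.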

PANC-1 = assay: SRB colorimetric cell growth inhibition assay, PANC-1; conditions: Homo sapiens, PANC-1, PANC-1; for GI50: GI=growth inhibition, read-out: GI50 PANC-1; for CC50: read-out: LC50 PANC-1; for IC (TGI): read-out: TGI PANC-1
How it was run: as §1

SK-MEL-28 = assay: SRB colorimetric cell growth inhibition assay, SK-MEL-28; conditions: Homo sapiens, SK-MEL-28, MEL-28; for GI50: GI=growth inhibition, read-out: GI50 MEL-28; for CC50: read-out: LC50 MEL-28; for IC (TGI): read-out: TGI MEL-28
How it was run: as §1

A-549 = assay: SRB colorimetric cell growth inhibition assay, A-549; conditions: Homo sapiens, A549, A-549; for GI50: GI=growth inhibition, read-out: GI50 A-549; for CC50: read-out: LC50 A-549; for IC (TGI): read-out: TGI A-549
How it was run: as §1

DU-145 = assay: SRB colorimetric cell growth inhibition assay, DU-145; conditions: Homo sapiens, DU-145, DU-145; for GI50: GI=growth inhibition, read-out: GI50 DU-145; for CC50: read-out: LC50 DU-145; for IC (TGI): read-out: TGI DU-145
How it was run: as §1

HeLa = assay: SRB colorimetric cell growth inhibition assay, HeLa; conditions: Homo sapiens, HeLa; for GI50: GI=growth inhibition, read-out: GI50 HELA; for CC50: read-out: LC50 HELA; for IC (TGI): read-out: TGI HELA
How it was run: as §1

K-562 = assay: SRB colorimetric cell growth inhibition assay, K-562; conditions: Homo sapiens, K562, K-562; for GI50: GI=growth inhibition, read-out: GI50 K-562; for CC50: read-out: LC50 K-562; for IC (TGI): read-out: TGI K-562
How it was run: as §1

LNCaP = assay: SRB colorimetric cell growth inhibition assay, LNCaP; conditions: Homo sapiens, LNCaP, LN-caP; for GI50: GI=growth inhibition, read-out: GI50 LN-caP; for CC50: read-out: LC50 LN-caP; for IC (TGI): read-out: TGI LN-caP
How it was run: as §1

HT-29 = assay: SRB colorimetric cell growth inhibition assay, HT-29; conditions: Homo sapiens, HT-29, HT-29; for GI50: GI=growth inhibition, read-out: GI50 HT-29; for CC50: read-out: LC50 HT-29; for IC (TGI): read-out: TGI HT-29
How it was run: as §1

HeLa-APL = assay: SRB colorimetric cell growth inhibition assay, HeLa-APL (aplidine resistant); conditions: Homo sapiens, HELA-APL; for GI50: GI=growth inhibition, read-out: GI50 HELA-APL; for CC50: read-out: LC50 HELA-APL; for IC (TGI): read-out: TGI HELA-APL
How it was run: as §1

IGROV-ET = assay: SRB colorimetric cell growth inhibition assay, IGROV-ET (ET-743 resistant); conditions: Homo sapiens, IGROV-ET; for GI50: GI=growth inhibition, read-out: GI50 IGROV-ET; for CC50: read-out: LC50 IGROV-ET; for IC (TGI): read-out: TGI IGROV-ET
How it was run: as §1

SK-BR-3 = assay: SRB colorimetric cell growth inhibition assay, SK-BR-3; conditions: Homo sapiens, SK-BR-3, SK-BR-3; for GI50: GI=growth inhibition, read-out: GI50 SK-BR-3; for CC50: read-out: LC50 SK-BR-3; for IC (TGI): read-out: TGI SK-BR-3
How it was run: as §1

LoVo-Dox = assay: SRB colorimetric cell growth inhibition assay, LoVo-Dox (MDR); conditions: Homo sapiens, LOVO-DOX; for GI50: GI=growth inhibition, read-out: GI50 LOVO-DOX; for CC50: read-out: LC50 LOVO-DOX; for IC (TGI): read-out: TGI LOVO-DOX
How it was run: as §1

LoVo = assay: SRB colorimetric cell growth inhibition assay, LoVo; conditions: Homo sapiens, LoVo; for GI50: GI=growth inhibition, read-out: GI50 LOVO; for CC50: read-out: LC50 LOVO; for IC (TGI): read-out: TGI LOVO
How it was run: as §1

[1] = LC=cell killing (cytotoxic effect)
[2] = TGI=total growth inhibition (cytostatic effect)
[3] = cell killing (cytotoxic effect)
[4] = total growth inhibition (cytostatic effect)

Structure (SMILES): COc1cc(-c2c3c4cc(OC)c(O)cc4oc(=O)c3n3ccc4c([N+](=O)[O-])cccc4c23)ccc1O [Compound 53]
- GI50 (IGROV): 1380 nM
- CC50 (IGROV; [1]): 20100 nM
- IC (TGI) (IGROV; [2]): 20100 nM
- GI50 (PANC-1): 1030 nM
- CC50 (PANC-1; [1]): 20100 nM
- IC (TGI) (PANC-1; [2]): 9670 nM
- GI50 (SK-MEL-28): 4030 nM
- CC50 (SK-MEL-28; [1]): 20100 nM
- IC (TGI) (SK-MEL-28; [2]): 15500 nM
- GI50 (A-549): 5660 nM
- CC50 (A-549; [1]): 20100 nM
- IC (TGI) (A-549; [2]): 20100 nM
- GI50 (DU-145): 4530 nM
- CC50 (DU-145; [1]): 20100 nM
- IC (TGI) (DU-145; [2]): 12300 nM
- GI50 (HeLa): 590 nM
- CC50 (HeLa; [1]): 20100 nM
- IC (TGI) (HeLa; [2]): 12300 nM
- GI50 (K-562): 10300 nM
- CC50 (K-562; [1]): 20100 nM
- IC (TGI) (K-562; [2]): 20100 nM
- GI50 (LNCaP): 4010 nM
- CC50 (LNCaP; [1]): 20100 nM
- IC (TGI) (LNCaP; [2]): 9750 nM
- GI50 (HT-29): 2170 nM
- CC50 (HT-29; [1]): 20100 nM
- IC (TGI) (HT-29; [2]): 20100 nM
- GI50 (HeLa-APL): 20100 nM
- CC50 (HeLa-APL; [1]): 20100 nM
- IC (TGI) (HeLa-APL; [2]): 20100 nM
- GI50 (IGROV-ET): 20100 nM
- CC50 (IGROV-ET; [1]): 20100 nM
- IC (TGI) (IGROV-ET; [2]): 20100 nM
- GI50 (SK-BR-3): 1990 nM
- CC50 (SK-BR-3; [1]): 20100 nM
- IC (TGI) (SK-BR-3; [2]): 9490 nM
- GI50 (LoVo-Dox): 20100 nM
- CC50 (LoVo-Dox; [1]): 20100 nM
- IC (TGI) (LoVo-Dox; [2]): 20100 nM
- GI50 (LoVo): 11100 nM
- CC50 (LoVo; [1]): 20100 nM
- IC (TGI) (LoVo; [2]): 20100 nM

Structure (SMILES): COc1cc(-c2c3c4cc(OC)c(OC(=O)[C@@H](N)Cc5ccccc5)cc4oc(=O)c3n3ccc4cc(OC(=O)[C@@H](N)Cc5ccccc5)c(OC)cc4c23)ccc1OC(=O)[C@@H](N)Cc1ccccc1 [Compound 204]
- GI50 (IGROV): 23.8 nM
- CC50 (IGROV; [3]): 526 nM
- IC (TGI) (IGROV; [4]): 113 nM
- GI50 (PANC-1): 44.7 nM
- CC50 (PANC-1; [3]): 392 nM
- IC (TGI) (PANC-1; [4]): 171 nM
- GI50 (SK-MEL-28): 26.8 nM
- CC50 (SK-MEL-28; [3]): 7140 nM
- IC (TGI) (SK-MEL-28; [4]): 243 nM
- GI50 (A-549): 31.1 nM
- CC50 (A-549; [3]): 9520 nM
- IC (TGI) (A-549; [4]): 1000 nM
- GI50 (DU-145): 5.63 nM
- CC50 (DU-145; [3]): 44.7 nM
- IC (TGI) (DU-145; [4]): 17.4 nM
- GI50 (HeLa): 36.9 nM
- CC50 (HeLa; [3]): 452 nM
- IC (TGI) (HeLa; [4]): 172 nM
- GI50 (K-562): 7.48 nM
- CC50 (K-562; [3]): 596 nM
- IC (TGI) (K-562; [4]): 203 nM
- GI50 (LNCaP): 79 nM
- CC50 (LNCaP; [3]): 597 nM
- IC (TGI) (LNCaP; [4]): 229 nM
- GI50 (HT-29): 1400 nM
- CC50 (HT-29; [3]): 9520 nM
- IC (TGI) (HT-29; [4]): 3800 nM
- GI50 (HeLa-APL): 88.8 nM
- CC50 (HeLa-APL; [3]): 594 nM
- IC (TGI) (HeLa-APL; [4]): 235 nM
- GI50 (IGROV-ET): 18 nM
- CC50 (IGROV-ET; [3]): 9520 nM
- IC (TGI) (IGROV-ET; [4]): 109 nM
- GI50 (SK-BR-3): 151 nM
- CC50 (SK-BR-3; [3]): 1090 nM
- IC (TGI) (SK-BR-3; [4]): 390 nM
- GI50 (LoVo-Dox): 160 nM
- CC50 (LoVo-Dox; [3]): 9520 nM
- IC (TGI) (LoVo-Dox; [4]): 6340 nM
- GI50 (LoVo): 113 nM
- CC50 (LoVo; [3]): 463 nM
- IC (TGI) (LoVo; [4]): 228 nM

Structure (SMILES): COc1cc(-c2c3c4cc(OC)c(OC(=O)[C@@H]5CCCN5)cc4oc(=O)c3n3ccc4cc(OC(=O)[C@@H]5CCCN5)c(OC)cc4c23)ccc1OC(=O)[C@@H]1CCCN1 [Compound 180]
- GI50 (IGROV): 53 nM
- CC50 (IGROV; [3]): 11100 nM
- IC (TGI) (IGROV; [4]): 319 nM
- GI50 (PANC-1): 130 nM
- CC50 (PANC-1; [3]): 11100 nM
- IC (TGI) (PANC-1; [4]): 11.1 nM
- GI50 (SK-MEL-28): 13.4 nM
- CC50 (SK-MEL-28; [3]): 11100 nM
- IC (TGI) (SK-MEL-28; [4]): 126 nM
- GI50 (A-549): 20.1 nM
- CC50 (A-549; [3]): 7260 nM
- IC (TGI) (A-549; [4]): 233 nM
- GI50 (DU-145): 35.9 nM
- CC50 (DU-145; [3]): 11100 nM
- IC (TGI) (DU-145; [4]): 84.2 nM
- GI50 (HeLa): 80.6 nM
- CC50 (HeLa; [3]): 11100 nM
- IC (TGI) (HeLa; [4]): 1990 nM
- GI50 (K-562): 40 nM
- CC50 (K-562; [3]): 11100 nM
- IC (TGI) (K-562; [4]): 1530 nM
- GI50 (LNCaP): 53 nM
- CC50 (LNCaP; [3]): 615 nM
- IC (TGI) (LNCaP; [4]): 227 nM
- GI50 (HT-29): 11100 nM
- CC50 (HT-29; [3]): 11100 nM
- IC (TGI) (HT-29; [4]): 11100 nM
- GI50 (HeLa-APL): 130 nM
- CC50 (HeLa-APL; [3]): 11100 nM
- IC (TGI) (HeLa-APL; [4]): 1210 nM
- GI50 (IGROV-ET): 69.1 nM
- CC50 (IGROV-ET; [3]): 11100 nM
- IC (TGI) (IGROV-ET; [4]): 531 nM
- GI50 (SK-BR-3): 18.1 nM
- CC50 (SK-BR-3; [3]): 1190 nM
- IC (TGI) (SK-BR-3; [4]): 54.1 nM
- GI50 (LoVo-Dox): 104 nM
- CC50 (LoVo-Dox; [3]): 11100 nM
- IC (TGI) (LoVo-Dox; [4]): 498 nM
- GI50 (LoVo): 535 nM
- CC50 (LoVo; [3]): 8510 nM
- IC (TGI) (LoVo; [4]): 2010 nM
